Legend:
[1] = tested on: Human bronchial epithelial cells (HBECs) from COPD donors; assay: IL-13 induced goblet hyperplasia in COPD donor HBEC air-liquid interface culture, qPCR; type: cell-based; settings: 0.3 ng/ml IL-13, ALI day 14, vs DMSO
Source text: Air-liquid interface (ALI) differentiation of primary human bronchial epithelial cells (HBECs) is an accepted in vitro model of IL-13-induced goblet cell hyperplasia. HBECs were initially thawed into T75 flasks in PneumaCult maintenance media, allowed to expand, then seeded into apical chamber of transwells. After reaching confluency, medium was removed from the apical and basal chambers, and replaced only in the basal chamber with complete PneumaCult-ALI Medium to start air-liquid interface (ALI) differentiation. Cells were differentiated under ALI conditions for 14 days, in presence or absence of IL-13. Medium in the basal chamber containing IL-13 and test compounds was replenished 3 times a week, and excess mucus was washed from the apical chamber with PBS twice a week starting on day 7. At day 14, differentiation to goblet, ciliated, and club cells is assessed by histology (IHC) or qPCR, using goblet marker (Muc5ac), ciliated cell markers (Foxj1, Acetyl α-tubulin) and club cell marker (Scgb1a1) (FIG. 5).
Human bronchial epithelial cells (HBECs) from two COPD donors were differentiated in the presence of 0.3 ng/ml IL-13 and test compounds. At day 14, cultures were processed for qPCR, and evaluated for lung epithelial markers: goblet (Muc5ac), ciliated (Foxj1), club (Scgb1a1). 2^-ΔCt values were transformed to log form and normalized to DMSO. […]

[2] = tested on: mouse intestinal organoids; settings: factors known to induce markers of the intestinal lineages (Yin et al.), ENR media; cited from earlier work
[3] = tested on: mouse intestinal organoids; assay: Mouse small intestinal organoid differentiation, lineage markers by Q-PCR; type: cell-based; settings: mouse intestinal organoids in ENR media, after 5 days of treatments, FIG. 1
Source text: Cryopreserved mouse intestinal organoids derived from small intestine were obtained from Stem Cell Technologies. The organoids were thawed and propagated in Intesticult Growth Medium (Mouse) (purchased from Stem Cell Technologies) following the company's instructions. Briefly, approximately 100 organoid fragments/well are embedded in 6 Matrigel domes in 6-well plates and growth media is renewed every 2-3 days. The organoids are passaged every 5-6 days in 1:4 ratio. To assess the potential of the predicted perturbations to induce or reduce the goblet cell lineage during organoid differentiation, an in vitro assay was established to induce the various intestinal lineages (enterocytes, goblet cells, Paneth cells, Enteroendocrine cells) based on published data (Yin et al, Nat. Meth. 2013). Briefly, organoid fragments are embedded in Matrigel and grown in custom-made media in the presence of EGF, Noggin, Rspondin (ENR) supplemented with the indicated factors (Table 4) that are known to induce markers of the various intestinal lineages. The expression of markers and the induction of the various cell lineages was assessed by Q-PCRs after 5 days of treatments (FIG. 1). Further characterization of the organoids will be performed by immunofluorescence staining and flow cytometry. For immunofluorescence commercially available antibodies against Muc2, ChrA, and ALPI will be used.

With `CC[C@H]1OC(=O)[C@H](C)[C@@H](O[C@H]2C[C@@](C)(OC)[C@@H](O)[C@H](C)O2)[C@H](C)[C@@H](O[C@@H]2O[C@H](C)C[C@H](N(C)C)[C@H]2O)[C@](C)(O)C[C@@H](C)CN(C)[C@H](C)[C@@H](O)[C@]1(C)O` [C] the “goblet cells / goblet hyperplasia (Muc5ac qPCR)” value ([1]; FIG. 6A) was “inhibited goblet cells” and the “differentiation to ciliated (Foxj1) and club (Scgb1a1) cells (qPCR)” value ([1]; FIG. 6B-6C) was “promoting or maintaining differentiation to ciliated and club cells”.
For `Cc1ccc2nc(NC(=O)CSc3nc4c(c(=O)n3-c3ccccc3)SCC4)sc2c1` [IWP2], the “Cell lineage induced by factor” value [2] is given as “Enterocytes, Enteroendocrine Cells”.
In the case of `C[C@H](NC(=O)Cc1cc(F)cc(F)c1)C(=O)N[C@H](C(=O)OC(C)(C)C)c1ccccc1` [DAPT], the “expression of muc2 gene, a marker of Goblet cells (Q-PCR)” value [3] is given as “induces the expression of muc2 gene” and the “Cell lineage induced by factor” value [2] is given as “Enteroendocrine Cells, Paneth”.

From patent US20240361301A1, “METHODS AND COMPOSITIONS FOR MODULATING GOBLET CELLS AND FOR MUCO-OBSTRUCTIVE DISEASES” (Flagship Pioneering Innovations VI, LLC, priority 2021, published 2024)
